In US7488712B2, “Histone deacetylase inhibitors and methods for producing the same” (Kyushu Institute of Technology, priority 2002, dated 2009):
Where two headings read alike, the source gives them in different places. Where a SMILES comes first, the peptide text is derived from it. [ ]: non-standard residue; d: D form. Gly((CH2)5SH) = N[C@@H](CCCCCS)C(=O)O

What was measured:
in vitro = details: human, Cancer-Cell-Selective Cytotoxicity
Method: (§1) Human normal lung cells (TIG-3) and human uterine cancer cells (HeLa) were used to test SCOP cytotoxicity. These TIG-3 and HeLa cells were cultured in a DMEM medium comprising 10% FBS at 37° C. in the presence of 5% carbon dioxide in a steam-saturated incubator. The TIG-3 and HeLa cells were plated in 100 μl/well of the above-described medium on a 96-well microtiter plate, at a density of 30,000 cells/well and 10,000 cells/well respectively. This was then cultured for 18 hours. Test compound solution diluted with medium was added to each well and culture was continued for another 48 hours.
(§2) 30 μl of supernatant from each well was transferred to another 96-well microtiter plate (A), and the remaining supernatant was discarded. 100 μl of 0.5% Triton-X/PBS was added to each well to lyse the cells, and 30 μl was then transferred to each respective well of another 96-well microtiter plate (B). 30 μl of LDH-Cytotoxic Test (Wako) substrate solution was added to each well of these 96-well microtiter plates A and B, causing a color reaction. Once the color reaction was sufficiently progressed, it was stopped by adding 60 μl of a quenching solution. Color intensity was measured at OD560 nm using a microplate reader (Softmax). [A/(A+B)] was calculated as the free-LDH ratio. […] The higher the activity value for cancer-cell-selective cell damage (LD50 for normal cells/LD50 for cancer cells), the more that cancer-cell-selective apoptosis was induced.

[1] = system: human uterine cancer cells (HeLa); assay: in vitro; details: 48 h
Method: as §1, §2

human HDAC1 = target: T1, human HDAC1 (Homo sapiens, UniProt Q13547); assay: In vitro HDAC inhibition activity, [3H]-acetylated histone substrate, HDAC1; type: biochemical
T1 construct: FLAG; made in house; host or cells: 293T cells (transient transfection, anti-FLAG immunoprecipitation, FLAG peptide elution)
T1 sequence (Q13547 whole entry): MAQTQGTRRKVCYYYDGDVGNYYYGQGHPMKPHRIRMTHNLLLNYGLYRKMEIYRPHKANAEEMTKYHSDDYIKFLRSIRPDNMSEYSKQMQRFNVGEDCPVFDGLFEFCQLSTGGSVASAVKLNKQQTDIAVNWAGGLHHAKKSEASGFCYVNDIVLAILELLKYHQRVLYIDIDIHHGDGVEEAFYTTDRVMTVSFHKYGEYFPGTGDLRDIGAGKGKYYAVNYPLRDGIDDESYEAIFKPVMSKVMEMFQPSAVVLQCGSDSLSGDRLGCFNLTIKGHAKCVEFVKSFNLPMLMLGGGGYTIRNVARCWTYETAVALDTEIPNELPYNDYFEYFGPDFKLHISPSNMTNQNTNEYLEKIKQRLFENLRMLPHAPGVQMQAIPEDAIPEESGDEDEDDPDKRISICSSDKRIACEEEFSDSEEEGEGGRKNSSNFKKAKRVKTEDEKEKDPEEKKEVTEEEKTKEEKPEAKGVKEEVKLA
Method: (§3) To measure HDAC inhibition activity, an HDAC solution was prepared as described below. 1×10^7 of 293T cells were plated on to a 100-mm dish and, after 24 hours, transfected with vectors (1 μg) expressing human HDAC1 and HDAC4 or mouse HDAC6, using LipofectAmine 2000 reagent (Life Technologies, Inc. Gaithersburg, Md.). […] The vectors were introduced for five hours in OPTI-MEM. The medium was then replaced with Dulbecco's modified Eagle's medium (DMEM), and incubated for 19 hours. The cells were washed with PBS, suspended in lysis buffer (50 mM Tris-HCl (pH7.5), 120 mM NaCl, 5 mM EDTA, and 0.5% Nonidet P-40), and sonicated. The supernatant was collected by centrifugation and nonspecific protein was removed using Protein A/G plus agarose beads (Santa Cruz Biotechnologies, Inc.). Anti-FLAG M2 antibodies (Sigma-Aldrich, Inc.) were added to the supernatant of cells expressing HDAC1 or HDAC4. Anti-HA antibodies (clone 3F10, Roche Molecular Biochemicals) were added to the supernatant of cells expressing HDAC6. Reaction in the respective mixtures was carried out at 4° C. for one hour. The resulting reaction mixtures were independently mixed with agarose beads and further reacted at 4° C. for one hour. The agarose beads were washed three times with lysis buffer and then washed once with HD buffer (20 mM Tris-HCl (pH8.0), 150 mM NaCl, 10% glycerol, and a complete protease inhibitor cocktail (Boehringer Mannheim, Germany)). […] The HDAC reaction solution was used for determining HDAC inhibition activity as shown below.
(§4) In vitro HDAC inhibition activity was evaluated as follows: A test compound was dissolved in DMSO and adjusted to 10 mM. This was used as an inhibitor stock solution. […] These reactions were stopped by adding 10 μl HCl. The [^3H] acetic acid excised by the enzyme reaction was extracted with ethyl acetate and subjected to radioactive dose measurement. As a negative control, the same procedure was carried out in which no inhibitor was added to the reaction system. The inhibition activity was expressed as a 50% inhibition concentration (“IC50 (nM)”) of the HDAC activity in the negative control (Tables 1 to 4).

human HDAC4 = target: T2, human HDAC4 (Homo sapiens, UniProt P56524); assay: In vitro HDAC inhibition activity, [3H]-acetylated histone substrate, HDAC4; type: biochemical
T2 construct: FLAG; made in house; host or cells: 293T cells (transient transfection, anti-FLAG immunoprecipitation, FLAG peptide elution)
T2 sequence (O15379 whole entry partner): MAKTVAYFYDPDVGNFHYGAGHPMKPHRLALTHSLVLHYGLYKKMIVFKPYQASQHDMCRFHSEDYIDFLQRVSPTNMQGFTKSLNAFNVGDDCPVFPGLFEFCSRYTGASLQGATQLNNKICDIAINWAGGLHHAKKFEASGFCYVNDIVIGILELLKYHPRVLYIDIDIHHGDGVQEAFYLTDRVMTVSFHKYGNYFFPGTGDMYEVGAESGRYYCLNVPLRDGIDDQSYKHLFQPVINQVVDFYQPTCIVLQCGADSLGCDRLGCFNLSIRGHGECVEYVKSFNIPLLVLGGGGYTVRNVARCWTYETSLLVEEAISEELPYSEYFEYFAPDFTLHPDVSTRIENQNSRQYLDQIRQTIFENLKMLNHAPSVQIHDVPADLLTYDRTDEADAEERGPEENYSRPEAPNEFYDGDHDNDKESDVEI
T2 sequence (P56524 whole entry): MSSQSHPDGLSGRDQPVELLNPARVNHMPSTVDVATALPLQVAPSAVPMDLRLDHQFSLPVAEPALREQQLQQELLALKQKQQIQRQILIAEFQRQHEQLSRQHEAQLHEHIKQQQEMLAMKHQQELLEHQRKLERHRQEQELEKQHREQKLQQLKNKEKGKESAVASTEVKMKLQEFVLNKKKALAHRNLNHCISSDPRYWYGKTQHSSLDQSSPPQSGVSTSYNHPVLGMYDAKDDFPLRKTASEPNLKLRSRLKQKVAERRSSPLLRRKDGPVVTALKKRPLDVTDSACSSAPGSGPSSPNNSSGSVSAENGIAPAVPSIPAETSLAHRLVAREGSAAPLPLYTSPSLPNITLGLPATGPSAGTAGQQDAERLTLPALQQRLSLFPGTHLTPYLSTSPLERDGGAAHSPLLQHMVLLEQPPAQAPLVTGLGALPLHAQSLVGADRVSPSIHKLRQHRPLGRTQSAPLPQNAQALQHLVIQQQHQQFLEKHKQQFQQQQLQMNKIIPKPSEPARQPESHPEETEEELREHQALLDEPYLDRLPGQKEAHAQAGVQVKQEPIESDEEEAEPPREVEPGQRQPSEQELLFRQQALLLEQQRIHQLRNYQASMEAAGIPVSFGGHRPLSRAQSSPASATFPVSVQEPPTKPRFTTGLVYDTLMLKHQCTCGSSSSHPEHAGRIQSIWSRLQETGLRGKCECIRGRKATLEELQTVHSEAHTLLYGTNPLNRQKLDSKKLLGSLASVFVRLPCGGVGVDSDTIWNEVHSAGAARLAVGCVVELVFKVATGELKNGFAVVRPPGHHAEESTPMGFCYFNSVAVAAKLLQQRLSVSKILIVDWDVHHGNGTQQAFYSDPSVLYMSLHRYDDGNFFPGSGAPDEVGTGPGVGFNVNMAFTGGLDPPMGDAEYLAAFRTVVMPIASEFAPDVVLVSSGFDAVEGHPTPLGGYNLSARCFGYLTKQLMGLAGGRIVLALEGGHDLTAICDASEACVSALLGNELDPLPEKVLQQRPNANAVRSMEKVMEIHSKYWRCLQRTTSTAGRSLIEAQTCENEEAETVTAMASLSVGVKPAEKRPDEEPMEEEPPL
Method: as §3, §4

[2] = Cytotoxicity test (free-LDH ratio), TIG-3; type: cell-based; details: human, TIG-3 human normal lung cells
Method: This was then cultured for 18 hours.

[3] = system: human wild-type p21 promoter; assay: p21 promoter-inducing activity (luciferase) in MFLL-9 cells; type: cell-based
Method: The HDAC inhibition activity in vivo was measured using p21 promoter-inducing activity as an index, as shown below. The MFLL-9 cells employed for the experiments stably maintained fusion genes of human wild-type p21 promoter and luciferase (Dr. B. Vogelstaein). Using phenol red-free DMEM medium comprising 10% FBS, cultivation was carried out in a steam-saturated incubator at 37° C. with 5% carbon dioxide. The MFLL-9 cells were plated at a density of 85,000 cells/well on a 96-well microtiter plate, each in 99 μl of the above-mentioned medium. These were then cultivated for six hours. One μl of test compound solution was added to each well, which was then cultured for another 18 hours.
The intensity of luminescence caused by the product of the enzyme reaction for intracellular luciferase expression was measured using Luc Lite (Packard BioScience Company). A group in which test compounds were not added was used as a negative control group. The values measured for this group were used as a standard. The activities for each concentration of added test compound were expressed relative to the above-mentioned standard value, 1.

mouse HDAC6 = target: T3, mouse HDAC6 (Mus musculus, UniProt Q9Z2V5); assay: In vitro HDAC inhibition activity, [3H]-acetylated histone substrate, HDAC6; type: biochemical
T3 construct: HA; made in house; host or cells: 293T cells (transient transfection, anti-HA immunoprecipitation, HA peptide elution)
T3 sequence (Q9Z2V5 1-1149): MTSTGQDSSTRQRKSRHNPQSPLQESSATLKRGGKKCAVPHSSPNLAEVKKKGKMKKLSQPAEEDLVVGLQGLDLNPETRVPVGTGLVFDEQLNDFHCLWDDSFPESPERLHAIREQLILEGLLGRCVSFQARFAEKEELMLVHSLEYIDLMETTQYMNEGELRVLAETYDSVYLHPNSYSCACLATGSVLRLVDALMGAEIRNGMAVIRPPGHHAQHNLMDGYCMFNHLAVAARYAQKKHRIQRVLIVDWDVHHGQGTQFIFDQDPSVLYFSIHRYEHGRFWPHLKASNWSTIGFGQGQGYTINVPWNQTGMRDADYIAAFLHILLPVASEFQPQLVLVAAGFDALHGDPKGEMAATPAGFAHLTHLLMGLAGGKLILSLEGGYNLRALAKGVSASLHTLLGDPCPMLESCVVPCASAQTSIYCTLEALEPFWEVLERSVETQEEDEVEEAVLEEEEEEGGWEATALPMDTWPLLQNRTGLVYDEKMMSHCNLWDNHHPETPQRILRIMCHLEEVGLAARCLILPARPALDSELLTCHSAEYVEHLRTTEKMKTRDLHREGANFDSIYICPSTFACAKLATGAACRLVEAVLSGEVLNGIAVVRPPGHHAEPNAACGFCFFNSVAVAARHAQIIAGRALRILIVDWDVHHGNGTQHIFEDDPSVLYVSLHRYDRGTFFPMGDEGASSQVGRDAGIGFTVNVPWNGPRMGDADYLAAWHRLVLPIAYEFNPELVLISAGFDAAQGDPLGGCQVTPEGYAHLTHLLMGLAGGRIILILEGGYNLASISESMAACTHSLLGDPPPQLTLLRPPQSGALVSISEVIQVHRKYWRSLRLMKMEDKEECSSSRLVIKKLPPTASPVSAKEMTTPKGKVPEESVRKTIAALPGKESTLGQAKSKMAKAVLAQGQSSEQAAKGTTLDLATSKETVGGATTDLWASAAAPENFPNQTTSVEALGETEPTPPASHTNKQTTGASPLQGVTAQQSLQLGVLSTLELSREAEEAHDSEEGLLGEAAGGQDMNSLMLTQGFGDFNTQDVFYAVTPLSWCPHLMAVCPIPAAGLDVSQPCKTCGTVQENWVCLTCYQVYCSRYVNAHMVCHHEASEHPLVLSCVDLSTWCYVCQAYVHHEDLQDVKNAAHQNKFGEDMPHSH
Method: as §3, §4

[4] = amide bond, 12-membered ring, HATU/DIEA, DMF
[5] = from H-dTyr(Me)-Ile-dPro-Ab6-OH, 9.7 mM
[6] = Table 1, X = H (coexisting with DTT)

CC[C@H](C)[C@@H]1NC(=O)[C@@H](Cc2ccc(OC)cc2)NC(=O)[C@H](CCCCCSSC)NC(=O)[C@H]2CCCN2C1=O [SCOP 405, cyclo(-L-Am7(SMe)-D-Tyr(Me)-L-Ile-D-Pro-)]
selectivity ratio at 48 h (in vitro; LD50 for normal cells/LD50 for cancer cells (TIG-3/HeLa), without DTT): 44.1 | LD50 (nM) HeLa [1]: 179 nM | IC50 (human HDAC1; Table 3, hybrid, without DTT): 119 nM | IC50 (human HDAC4; Table 3, hybrid, without DTT): 405 nM | CC50 at 48 h ([2]; 48 hours, free-LDH ratio 50%, without DTT, read-out: LD50 (nM) TIG-3): 7900 nM | EC50 ([3]; Table 3, hybrid, without DTT): 3.26 µM | IC50 (mouse HDAC6; Table 3, hybrid, without DTT): 191 nM

CC[C@H](C)[C@@H]1NC(=O)[C@@H](Cc2ccc(OC)cc2)NC(=O)[C@H](CCCCCCBr)NC(=O)[C@H]2CCCN2C1=O [cyclo(-L-Ab8-D-Tyr(Me)-L-Ile-D-Pro-)]
ring closure, isolated yield ([4]; from H-Ab8-dTyr(Me)-Ile-dPro-OH, 10.0 mM): 55%

CC[C@H](C)[C@@H]1NC(=O)[C@@H](Cc2ccc(OC)cc2)NC(=O)[C@H](CCCCCBr)NC(=O)[C@H]2CCCN2C1=O [H-Ab7-dTyr(Me)-Ile-dPro-OH]
ring closure, isolated yield ([4]; from H-Ab7-dTyr(Me)-Ile-dPro-OH, 10.2 mM): 64%

CC[C@H](C)[C@@H]1NC(=O)[C@@H](Cc2ccc(OC)cc2)NC(=O)[C@H](CCCCOn2nnc3cccnc32)NC(=O)[C@H]2CCCN2C1=O [cyclo(-L-A(OAt)6-D-Tyr(Me)-L-Ile-D-Pro-)]
ring closure, isolated yield [4, 5]: 27%

CC[C@H](C)[C@@H]1NC(=O)[C@@H](Cc2ccc(OC)cc2)NC(=O)[C@H](CCCCCS)NC(=O)[C@H]2CCCN2C1=O [SCOP 152] (cyclo([Gly((CH2)5SH)][dY](Me)I[dP]))
selectivity ratio at 48 h (in vitro): 18.3 | LD50 (nM) HeLa [1]: 370 nM | IC50 (human HDAC1; [6]): 4.6 nM | IC50 (human HDAC4; [6]): 2.06 nM | CC50 at 48 h ([2]; LD50 (nM) TIG-3): 6780 nM | EC50 ([3]; Table 1, X = H (coexisting with DTT), 50% of maximum active value for TSA): 0.309 µM | EC50 ([3]; Table 5, purified SCOP 152 under DTT-free conditions): 3.51 µM | IC50 (mouse HDAC6; [6]): 1400 nM

CC[C@H](C)[C@@H]1NC(=O)[C@@H](Cc2ccc(OC)cc2)NC(=O)[C@H](CCCCOn2nnc3cccnc32)NC(=O)[C@H]2CCCN2C1=O [cyclo(-L-Ab6-D-Tyr(Me)-L-Ile-D-Pro-)]
ring closure, isolated yield [4, 5]: 23%

CC[C@H](C)[C@@H]1NC(=O)[C@@H](Cc2ccc(OC)cc2)NC(=O)[C@H](CCCCCCCBr)NC(=O)[C@H]2CCCN2C1=O [cyclo(-L-Ab9-D-Tyr(Me)-L-Ile-D-Pro-)]
ring closure, isolated yield ([4]; from H-Ab9-dTyr(Me)-Ile-dPro-OH, 9.4 mM): 61%

CC[C@H](C)[C@@H]1NC(=O)[C@@H](Cc2ccc(OC)cc2)NC(=O)[C@H](CCCCCBr)NC(=O)[C@H]2CCCCN2C1=O [cyclo(-L-Ab7-D-Tyr(Me)-L-Ile-D-Pip-)]
ring closure, isolated yield ([4]; from H-dTyr(Me)-Ile-dPip-Ab7-OH?, 2.0 mM): 39%

CC[C@H](C)[C@@H]1NC(=O)[C@@H](Cc2ccc(OC)cc2)NC(=O)[C@H](CCCCCBr)NC(=O)[C@@H]2CCCCN2C1=O [cyclo(-L-Ab7-D-Tyr(Me)-L-Ile-L-Pip-)]
ring closure, isolated yield ([4]; from H-dTyr(Me)-Ile-Pip-Ab7-OH?, 2.0 mM): 61%

CC[C@H](C)[C@@H]1NC(=O)[C@@H](Cc2ccc(OC)cc2)NC(=O)[C@H](CCCCCBr)NC(=O)[C@@H]2CCCN2C1=O [cyclo(-L-Ab7-D-Tyr(Me)-L-Ile-L-Pro-)]
ring closure, isolated yield ([4]; from H-dTyr(Me)-Ile-Pro-Ab7-OH, 1.02 mM): 21%
